Test results as given in article PMC9149120 (Cell, 2022).
Each block holds one compound with its values, some of them ahead of it. Peptide text beside a SMILES is read from it. * marks the point of attachment. Cbz = O=C(OCc1ccccc1)*; CH2F = FC*

Experiments:
SH-SY5Y cells [1] = test: Staurosporine; assay type: cell-based; conditions: 0.5 μM STS, n = 3; Figure S4F
HT 22 cells = test: TNF-α and Z-VAD-induced necroptosis, Alamar blue; assay type: cell-based; conditions: 1 ng/mL TNF-α with 50 μM z-VAD, n = 3; Figure S4G
[2] = tested on: PC-3 prostate cancer cells; test: Tumor cell viability alone or with alantolactone; assay type: cell-based; conditions: 0.5–8 μM combined with 10 μM ATL, 72 h, n = 3; Figure S5D
cortical neurons = test: Nuclear translocation of AIF and PAAN/MIF after α-syn PFF; assay type: cell-based, mouse; conditions: n = 3
human cortical neurons = test: Human α-syn PFF-induced cell death, Hoechst/PI staining; assay type: cell-based; conditions: 0.5 or 1 μM, pre-incubated 1 h, human α-syn PFF 14 days, n = 4; Figure 3G
primary cortical neurons = test: α-syn PFF-induced PARP activation; assay type: cell-based, mouse; conditions: AP5 50 μM or NBQX 10 μM pre-incubated 1 h, α-syn PFF 3 days, n = 3; Figure S3A
SH-SY5Y cells [3] = test: MNNG-induced parthanatic cell death, Alamar blue viability; assay type: cell-based; conditions: for inhibition of MNNG-induced parthanatic cell death: 0.5 or 1 μM, 50 μM MNNG 15 min, n = 4, Figure S5I; for inhibition of parthanatic cell death by MIF tautomerase inhibitors: 10 μM p-425, 50 μM ISO-1, 10 μM AV411, 50 μM MNNG 15 min, n = 5, Figure 4J
PAAN/MIF nuclease = target: T1, PAAN/MIF nuclease (Homo sapiens, UniProt P14174); test: In vitro PAAN/MIF nuclease assay; assay type: biochemical; conditions: for inhibition of PAAN/MIF nuclease activity: PS30 substrate, indicated doses, n = 4, Figure 4H; for inhibition of the nuclease activity of PAAN/MIF by MIF tautomerase inhibitors: 10 μM p-425, 50 μM ISO-1, 10 μM AV411, n = 5, Figure 4I
T1 sequence (P14174 1-115): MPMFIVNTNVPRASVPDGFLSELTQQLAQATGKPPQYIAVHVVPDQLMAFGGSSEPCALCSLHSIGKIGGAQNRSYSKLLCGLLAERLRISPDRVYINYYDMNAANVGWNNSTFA

Structure (SMILES): C[C@]1(c2nc3c(C(N)=O)cccc3[nH]2)CCCN1 [ABT-888]
inhibition of staurosporine (STS)-induced apoptotic cell death (SH-SY5Y cells [1]): did not inhibit
prevention of TNF-α and Z-VAD-induced necroptosis (HT 22 cells): not prevented
tumor toxicity induced by alantolactone (ATL) [2]: enhancement of tumor toxicity
α-syn PFF-induced nuclear translocation of PAAN/MIF and AIF (cortical neurons; ABT-888 1 μM, Figure 2A): attenuated
protection against cell death (human cortical neurons): protected against cell death

Structure (SMILES): NC(CCCP(=O)(O)O)C(=O)O (centres unmarked) [AP5]
α-syn PFF-induced PARP activation (primary cortical neurons): inhibited
nuclear translocation of AIF and MIF (cortical neurons; AP5 50 μM or NBQX 10 μM pretreatment, Figure S3B): attenuated

inhibition of PAAN/MIF nuclease activity (PAAN/MIF nuclease): failed to inhibit
Structure (SMILES): C=CC[C@@H]1/C=C(\C)C[C@H](C)C[C@H](OC)[C@H]2O[C@@](O)(C(=O)C(=O)N3CCCC[C@H]3C(=O)O[C@H](/C(C)=C/[C@@H]3CC[C@@H](O)[C@H](OC)C3)[C@H](C)[C@@H](O)CC1=O)[C@H](C)C[C@@H]2OC [FK506]
inhibition of MNNG-induced parthanatic cell death (SH-SY5Y cells [3]): failed to inhibit

Structure (SMILES): COC(=O)CC1CC(c2ccc(O)cc2)=NO1 (centres unmarked) [ISO-1]
inhibition of parthanatic cell death by MIF tautomerase inhibitors (SH-SY5Y cells [3]): failed to inhibit
inhibition of the nuclease activity of PAAN/MIF by MIF tautomerase inhibitors (PAAN/MIF nuclease): failed to inhibit

inhibition of the nuclease activity of PAAN/MIF by MIF tautomerase inhibitors (PAAN/MIF nuclease): failed to inhibit
Structure (SMILES): CC(C)C(=O)c1c(C(C)C)nn2ccccc12 [Ibudilast]
inhibition of parthanatic cell death by MIF tautomerase inhibitors (SH-SY5Y cells [3]): failed to inhibit

Structure (SMILES): CN1C(=O)C(Cc2c[nH]c3ccccc23)NC1=S (centres unmarked) [Nec-1]
prevention of TNF-α and Z-VAD-induced necroptosis (HT 22 cells): prevented necroptosis

Structure (SMILES): COC(=O)C[C@H](NC(=O)[C@H](C)NC(=O)[C@@H](NC(=O)OCc1ccccc1)C(C)C)C(=O)CF [Z-VAD] (Cbz-Val-Ala-Asp(OMe)-CH2F)
inhibition of staurosporine (STS)-induced apoptotic cell death (SH-SY5Y cells [1]): prevented

inhibition of PAAN/MIF nuclease activity (PAAN/MIF nuclease): failed to inhibit
Structure (SMILES): CO[C@H]1C[C@@H]2CC[C@@H](C)[C@@](O)(O2)C(=O)C(=O)N2CCCC[C@H]2C(=O)O[C@H]([C@H](C)C[C@@H]2CC[C@@H](O)[C@H](OC)C2)CC(=O)[C@H](C)/C=C(\C)[C@@H](O)[C@@H](OC)C(=O)[C@H](C)C[C@H](C)/C=C/C=C/C=C/1C [rapamycin]
inhibition of MNNG-induced parthanatic cell death (SH-SY5Y cells [3]): failed to inhibit
